# Data: publication PMC9918186, “Interaction of Positively Charged Oligopeptides with Blood Plasma Proteins” (International Journal of Molecular Sciences, 2023)
# What was measured:
# [1] = molecular target: T1, bovine serum albumin (BSA) (Bos taurus, UniProt P02769); assay: Fluorescence quenching of BSA by peptides L1–3; conditions: for Stern–Volmer constant Ksv / logKb: BSA 1.0 µM, phosphate buffer; for Stern–Volmer constant Ksv: peptide 0.25–2.0 µM, λex 280 nm; for logKb: double log regression; for quenching rate constant kq: from Ksv with τ0 10^−8 s assumed
# T1 sequence (P02769 25-607): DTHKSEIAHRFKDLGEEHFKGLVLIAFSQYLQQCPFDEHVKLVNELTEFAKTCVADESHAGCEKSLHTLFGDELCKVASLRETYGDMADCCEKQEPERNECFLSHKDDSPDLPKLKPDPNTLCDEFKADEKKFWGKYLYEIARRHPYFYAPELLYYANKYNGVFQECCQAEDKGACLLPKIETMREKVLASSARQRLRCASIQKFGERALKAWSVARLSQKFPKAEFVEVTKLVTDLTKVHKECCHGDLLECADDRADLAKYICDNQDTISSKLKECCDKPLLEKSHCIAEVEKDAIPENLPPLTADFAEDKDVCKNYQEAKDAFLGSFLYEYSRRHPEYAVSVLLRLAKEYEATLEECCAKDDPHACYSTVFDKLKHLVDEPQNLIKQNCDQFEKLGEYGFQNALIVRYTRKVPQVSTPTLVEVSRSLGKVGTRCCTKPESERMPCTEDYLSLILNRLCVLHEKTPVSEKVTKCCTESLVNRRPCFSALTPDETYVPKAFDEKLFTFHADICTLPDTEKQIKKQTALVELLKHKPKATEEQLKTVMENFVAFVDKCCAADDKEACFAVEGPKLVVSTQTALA
# Method: Fluorescence spectroscopy was carried out to characterize the mechanism of the interaction between three plasma proteins, BSA, AAG, and GGF, with the studied peptides. The fluorescence spectra of protein were collected during titration of L1–L3. The excitation wavelength was set at λ = 280 nm (both Trp and Tyr residues were excited).
# To confirm this, the fluorescence data were further analyzed by the Stern–Volmer Equation (1) after correction due to the infer filter effect (2):(1) F0/F=1+kqτ[Q]=1+KSV (2) Fcorr=Fobs10^(Aex+Aem)/2 where F0 and F are the fluorescence intensities (after correction) of the protein and protein in the presence of L1–3, respectively, kq is the quenching rate constant, τ0 the average lifetime, [Q] is the L1–3 concentration, Ksv is the Stern–Volmer constant, and Fcorr, and Fobs are the corrected and observed fluorescence intensities, respectively. Aex and Aem are the absorbance values at excitation and emission wavelengths, respectively. A linear regression fit was used to calculate the value of the Stern–Volmer constant (Ksv). Then, assuming the average lifetime of the fluorophore in the excited state for a biomolecule as 10^−8 s, the quenching rate constant (kq) was computed. For dynamic quenching, the maximum scatters collision quenching rate constant for different quenchers with the biopolymers was reported to be 2 × 10^10 dm^3mol^−1s^−1 [55, 56]. […] Collisional quenching occurs when the excited-state fluorophore is deactivated by contact with some other molecule in solution (by collisions). […] This is a dynamic mechanism of quenching. The quenching constant characterizes the quenching mechanism. The maximum value for collisional quenching is 2 × 10^10 dm^3mol^−1s^−1. […] For further confirmation, measurements were made at, in addition to 297 K, temperatures 303 and 308 K. Experimental data points were fitted and analyzed using Equation (1).
# Both for the complexes with BSA and with GGF, the binding constant (Kb) and the binding stoichiometry (n) were calculated. […] The values of Kb and n were calculated from the slope and the intercept of the log [(F0 − F)/F] versus log [Q] plot (Figure 2).
# The forces involved in the interaction can be identified by measurement at different temperatures and then by thermodynamic analysis. The signs of the thermodynamic parameters identify the type of interactions. The enthalpy change (ΔH°), the entropic change (ΔS°), and the free energy change (ΔG°) were calculated from Equations (4) and (5):(4) […]=−ΔH^°/RT+ΔS^°/R (5) ΔG^°=ΔH^°−TΔS^°=−RTlnKb where Kb is the binding constant and R is the universal gas constant. To determine the thermodynamic parameters, the van’t Hoff plot was first conducted, i.e., the temperature dependence of the binding constant, according to Equation (4). The Kb values at the three temperatures were fitted by the linear regression method. The values of ΔH and ΔS were calculated from the slope and intercept at the fitted line. Next, the free energy change (ΔG°) was obtained from Equation (5).
# [2] = molecular target: T1, bovine serum albumin (BSA); assay: Site-marker displacement (phenylbutazone, ibuprofen) on BSA, fluorescence; assay type: binding; set-up: purchased Sigma Aldrich; conditions: 297 K, BSA 5.0 µM, marker 10.0 µM
# Method: To check if L1–L3 bind to BSA at the two Sudlow drug sites (site 1 and 2 [34, 60]), displacement studies were conducted by using phenylbutazone (PHB) and ibuprofen (IBP) as site probes. […] The fluorescence emission spectra of BSA and site markers during the titration of L1–L3 were recorded. The experimental data were analyzed using Equation (3). Binding constants in the presence of site markers were calculated and compared with Kb without PHB or IBP.
# Concentrations of BSA and site markers were set at 5.0 × 10^−6 and 10.0 × 10^−6 moldm^−3, respectively.
# [3] = BSA, van't Hoff plot of Kb at 297, 303, 308 K
substance,measurement,setting,value
Lys-Dab-Dab-Gly-Orn-Pro-His-Lys-Arg-Lys-Dbt [L1],number of binding sites n,"[1]; 297 K, BSA",0.80 ± 0.02
same,Stern–Volmer constant Ksv,"[1]; 297 K, inner-filter corrected",1.55 ± 0.07 × 10^5 dm^3mol^−1
same,logKb,[1]; 297 K,4.07 ± 0.07
same,quenching rate constant kq,[1]; 297 K,1.55 ± 0.07 × 10^13 dm^3mol^−1s^−1
same,number of binding sites n,"[1]; 303 K, BSA",0.80 ± 0.04
same,Stern–Volmer constant Ksv,[1]; 303 K,1.21 ± 0.03 × 10^5 dm^3mol^−1
same,logKb,[1]; 303 K,3.95 ± 0.09
same,quenching rate constant kq,[1]; 303 K,1.21 ± 0.03 × 10^13 dm^3mol^−1s^−1
same,number of binding sites n,"[1]; 308 K, BSA",0.80 ± 0.02
same,Stern–Volmer constant Ksv,[1]; 308 K,0.70 ± 0.06 × 10^5 dm^3mol^−1
same,logKb,[1]; 308 K,3.72 ± 0.15
same,quenching rate constant kq,[1]; 308 K,0.70 ± 0.06 × 10^13 dm^3mol^−1s^−1
same,ΔG°,"[1]; BSA, from ΔH° − TΔS°",−23 ± 1 kJmol^−1
same,ΔH°,[1]; [3],−54 ± 2 kJmol^−1
same,ΔS°,[1]; [3],−106 ± 3 Jmol^−1K^−1
same,logKb,[2]; BSA + IBP (site II),4.03 ± 0.15
same,logKb,[2]; BSA + PHB (site I),4.00 ± 0.12
